According to patent US7858794B2, “Tetrahydroquinoline derivatives” (N.V. Organon, priority 2002, dated 2010):

Target: T1, human FSH receptor (Homo sapiens, UniProt P23945)
T1 construct: expressed in transfected cells; host or cells: Chinese Hamster Ovary (CHO) cells
T1 sequence (P23945 18-695): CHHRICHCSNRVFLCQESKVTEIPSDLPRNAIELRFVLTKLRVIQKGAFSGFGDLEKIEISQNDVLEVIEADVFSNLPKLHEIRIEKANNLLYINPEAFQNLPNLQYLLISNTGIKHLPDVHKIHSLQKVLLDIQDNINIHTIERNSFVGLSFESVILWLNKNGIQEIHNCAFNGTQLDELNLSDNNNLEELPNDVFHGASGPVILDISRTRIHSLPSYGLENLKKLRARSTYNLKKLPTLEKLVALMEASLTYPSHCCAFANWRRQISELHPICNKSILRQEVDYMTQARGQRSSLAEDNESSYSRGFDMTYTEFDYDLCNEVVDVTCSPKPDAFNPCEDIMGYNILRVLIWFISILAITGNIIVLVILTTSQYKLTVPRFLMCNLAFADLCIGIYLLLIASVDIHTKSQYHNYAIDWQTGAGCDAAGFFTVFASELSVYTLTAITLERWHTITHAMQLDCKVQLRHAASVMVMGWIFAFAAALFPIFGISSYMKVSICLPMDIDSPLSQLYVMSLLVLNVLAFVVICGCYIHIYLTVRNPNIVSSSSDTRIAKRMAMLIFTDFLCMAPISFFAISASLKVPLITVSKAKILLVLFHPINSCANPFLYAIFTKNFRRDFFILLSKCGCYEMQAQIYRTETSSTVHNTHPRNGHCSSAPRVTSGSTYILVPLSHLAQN
Assay: CHO-FSH in vitro bioactivity (CRE-luciferase reporter, agonistic or antagonistic set-up)
Assay type: cell-based
Details: CHO cells stably transfected with human FSH receptor and CRE-luciferase; either agonistic or antagonistic (rec-hFSH, 10 mU/ml) assay set-up or both / at least one of the assays; read-out: EC50 (IC50)
Description: FSH activity of compounds were tested in Chinese Hamster Ovary (CHO) cells stably transfected with the human FSH receptor and cotransfected with a cAMP responsive element (CRE)/promotor directing the expression of a firefly luciferase reporter gene. Binding of ligand to the Gs-coupled FSH receptor will result in an increase of cAMP, which in turn will induce an increased transactivation of the luciferase reporter construct. To test antagonistic properties recombinant FSH in a concentration that induces approximately 80% of the maximal stimulation of cAMP accumulation in the absence of test compound was added (rec-hFSH, 10 mU/ml). The luciferase signal was quantified using a luminescence counter. For test compounds, EC50 values (concentration of test compound causing half-maximal (50%) stimulation or reduction) were calculated For that purpose the software program GraphPad PRISM, version 3.0 (GraphPad software Inc., San Diego) was used.

Row | EC50 [nM] | SMILES
1 | < 100 | CC(=O)N1c2cc(OCC(=O)N(C)C)c(NC(=O)c3ccc(-c4ccccc4)cc3)cc2C(C)(c2ccccc2)CC1(C)C (stereo not shown) [Example 16, Biphenyl-4-carboxylic acid (1-acetyl-7-dimethylcarbamoylmethoxy-2,2,4-trimethyl-4-phenyl-1,2,3,4-tetrahydro-quinolin-6-yl)-amide]
2 | < 100 | CC(=O)N1c2cc(N(C)C)c(NC(=O)C3CCCC3)cc2C(C)(c2ccccc2)CC1(C)C (stereo not shown) [Example 37, Cyclopentanecarboxylic acid (1-acetyl-7-dimethylamino-2,2,4-trimethyl-4-phenyl-1,2,3,4-tetrahydro-quinolin-6yl)-amide]
3 | < 100 | CC(=O)N1c2cc(N(C)C)c(NC(=O)C(C)C)cc2C(C)(c2ccccc2)CC1(C)C (stereo not shown) [Example 38, N-(1-Acetyl-7-dimethylamino-2,2,4-trimethyl-4-phenyl-1,2,3,4-tetrahydro-quinolin-6-yl)-isobutyramide]
4 | < 100 | CCNc1cc2c(cc1NC(=O)c1ccc(-c3ccccc3)cc1)C(C)(c1ccccc1)CC(C)(C)N2C(C)=O (stereo not shown) [Example 41, Biphenyl-4-carboxylic acid (1-acetyl-7-ethylamino-2,2,4-trimethyl-4-phenyl-1,2,3,4-tetrahydro-quinolin-6-yl)amide]
